Measurements: US5705693A, “Cationic lipids” (Gilead Sciences, Inc., priority 1995, dated 1998)
Where two headings read alike, the source gives them in different places.

Columns and labels:
CV-1 cells [1] = assay: Transfection of CV-1 cells with ODN1 and toxicity (Example 6); settings: 18 h, 10% FBS; for cells transfected CV-1: 15 μg/mL lipid, 1:1 DOPE, 250 pmole ODN1
Experimental: (§4) Preparation of lipid-nucleic acid complexes and cell transfection. Lipids were prepared for complexing with nucleic acids by drying a cationic lipid-colipid mixture in CHCl3 under argon. The molar ratio of cationic lipid to colipid was adjusted by adding appropriate amounts of each lipid in CHCl3 together prior to drying. Usually 10 mL of water was added to a 100 mL round bottom flask containing a dried film of lipid and colipid. The lipids consisted of a mixture of an invention cationic lipid and the colipid DOPE (dioleylphosphatidylethanolamine). Sterile-filtered water or a low ionic strength aqueous buffer such as physiological saline, TE (10 mM tris, 1 mM EDTA, pH 7-8) or Ringer's solution was then added to the dried lipids to obtain a lipid suspension at 1 mg lipid/mL followed by a 10 minute bath sonication (Ultra Sonik 100, NEY) at room temperature to suspend the lipids in the flask. The suspended lipids (10 mL) were then sonicated 5 times for 15 seconds per sonication at 0°-4° C. with about 30-60 seconds between pulses. Sonication was usually conducted in a 15 mL polypropylene culture tube. A probe sonicator (Sonifier 250, Branson Ultrasonics) was used at maximum power for the ice bath sonication and for each 15 second pulse. The lipid suspension was optionally filtered or centrifuged (2000 rpm, 10 minutes at 0-4° C.) to remove large particulate matter and the resulting lipid suspensions were kept at 4° C. until used.
(§5) Lipid nucleic acid complexes were prepared by mixing (a) 10% v/v (usually 100 μL) oligonucleotide in Optimem™ (Bethesda Research Labs, Inc.) at room temperature (about 19°-24° C.) with (b) 10% v/v lipid suspension in Optimem™ at room temperature and allowing the mixture to stand for about 15 minutes, followed by adding (c) 80% v/v Optimem™ without serum or 80% v/v tissue culture medium (Modified Essential Medium (MEM), Dulbecco's Modified Eagle's Medium (DMEM), etc. containing 0-80% fetal bovine serum (Hyclone, Inc.). The lipid and nucleic acid solutions could also be prepared using DMEM without serum, a low ionic strength (less than about 200 mM total ion concentration) aqueous medium lacking phosphate (TE, etc) or water in place of Optimem™. Typically, 100 μL each of Optimem™ containing oligonucleotide (100-500 pmole) and Optimem™ containing added lipid was mixed with 800 μL of serum free Optimem™ or with 800 μL of tissue culture medium containing 10-80% FBS. Generally, 5 or 10 μL (5 or 10 μg) of lipid was added to 95 or 90 μL of Optimem™ to give a final 1 mL transfection preparation containing 5 or 10 μg of lipid and 250 pmole of oligonucleotide. The lipid-nucleic acid mixture was held at room temperature for about 15 min hours before adding medium to give the final transfection preparation volume (usually 1 mL) and warming to 37° C. and immediately applying onto the cells. The transfection mixture was left on the cells for 2 to 24 hours (at 37° C.), with a 6 hour time period commonly used.
(§6) Cells were typically transfected using 1 mL of transfection mixture per well in a 6-well plate. Cells at about 50-100% confluency were used. […] Typical transfections with the invention lipids used cells at about 60-100% confluency.

cells [2] = assay: Transfection with filtered preparations; assay type: cell-based; settings: 1:1 DOPE, sonicated
Experimental: The invention cationic lipids 30 or 34 and DOPE colipid (1:1) were prepared by sonication and then filtered using 200, 100 or 50 nm filters to obtain particles less than about 200 nm in diameter, less than about 100 nm and less than about 50 nm. […] The 50 nm filtered preparations were about 40-50% as efficient as the preparations containing larger particles. The size of the particles or miscelles in a given preparation will vary depending on the preparation method. Sonicating cationic lipid-colipid mixtures will provide smaller miscelles and vortexing will provide larger miscelles (Felgner J. Biol. Chem. (1994) 269:2550-2561). Such miscelles are believed to transfer the polyanion into the cytoplasm of a eukaryotic or prokaryotic cell by pinocytosis, endocytosis and/or by direct fusion with the plasma membrane.

HL60 cells = assay: Transfection of HL60 cells with 30/ODN1 (Example 8); assay type: cell-based, human; settings: for % HL60 transfected: 500 pmole ODN1
Text: (§1) Preparation of lipid-nucleic acid complexes and cell transfection.
(§2) The toxicity noted for HL60 cells may have been at least partly due to the high level of ODN1 that was delivered to the cells.

SK-OV-3 cells = assay: Transfection of SK-OV-3 cells with ODN1 in 40% or 80% FBS (Example 7); assay type: cell-based, human; settings: for % SK-OV-3 transfected: 18 h, 500 pmole ODN1, 1:1 DOPE
Text: as §1
80% serum approximates the serum protein and ion conditions that exist in vivo in mammalian circulation. 30 is thus suitable for transfecting cells under physiological conditions.

cells [3] = assay: Amount of fluorescently labeled oligonucleotide delivered versus commercially available lipids; assay type: cell-based; settings: observed fluorescence intensity, estimated
Text: The difference in transfection efficiency between lipids described herein and commercially available lipids is usually most pronounced when the transfections are done in the presence of medium containing serum. The amount of polyanion delivered into cells was estimated to be about 2- to 100-fold greater for lipids 30, 34 and 35 based on the observed fluorescence intensity of transfected cells after transfection using a fluorescently labeled oligonucleotide. The cationic lipids described herein also transfect some cell types that are not detectably transfected by commercial lipids, particularly where the transfection is conducted in the presence of serum.

ECl cells = assay: Transfection of ECl cells with ODN1 (Example 10); assay type: cell-based, human; settings: for % ECl transfected: DMEM
Text: as §1

A10 cells = assay: Transfection of A10 cells with ODN1 (Example 6); assay type: cell-based, rat; settings: 18 h, 10% FBS; for cells transfected A10: 15 μg/mL lipid, 1:1 DOPE, 250 pmole ODN1; for toxicity to A10 cells / transfection of A10 in the presence of serum: in words
Text: as §1
Cells at about 50-100% confluency were used.

CV-1 cells [4] = system: CV-1 cells
Experimental: as §4, §5, §6

L7 cells = assay: Transfection of L7 cells with ODN1 (Example 11); assay type: cell-based, murine; settings: for % L7 transfected: 20% FBS, 18 h, 250 pmole ODN1
Text: as §1

HUVEC cells = assay: Transfection of HUVEC cells with ODN1 (Example 9); assay type: cell-based, human; settings: for % HUVEC transfected: 10% serum, 5 h, 500 pmole ODN1
Text: as §1

NHEK cells = assay: Transfection of NHEK cells with ODN1 (Example 10); assay type: cell-based, human; settings: for % NHEK transfected: DMEM, 24 h
Text: as §1

CV-1 cells [5] = assay: Transfection of CV-1 cells with 30/ODN1 (Example 8); assay type: cell-based, African green monkey; settings: for % CV-1 transfected: 18 h, 500 pmole ODN1
Text: as §1, §2

CV-1 cells [6] = assay: Transfection of CV-1 cells with ODN1 and toxicity (Example 22); assay type: cell-based, African green monkey; settings: 2:1 DOPE, 6 h, 10% FBS, 250 pmole ODN1
Experimental: (§3) Lipids 35, 52, 54 and 55 were each prepared using a 2:1 lipid:DOPE molar ratio as follows. Two molar equivalents of each lipid in CHCl3 and one equivalent of DOPE in CHCl3 was dried under reduced pressure by rotovap at room temperature. Deionized water was then added to give 1 mg/mL of total lipid. 10 mL of water containing 10 mg of lipid was vortexed for 5 minutes in a 100 mL round bottom flask. 2 mL aliquots were then used to prepare lipid suspensions for complexing with ODN1. Each preparation was obtained by 6 cycles of freezing on dry ice and thawing in a 37° C. water bath.

cdc-2 kinase = assay: cdc-2 antisense oligonucleotide analog transfection, Western blot (Example 22); assay type: cell-based, African green monkey; settings: 30 nM cdc-2 antisense oligonucleotide analog, 2.5 and 5.0 μg lipid
Text: The oligonucleotide contained 5-(1-propynyl)cytosine in place of cytosine and 5-(1-propynyl)uracil in place of uracil. A control oligonucleotide analog having a mismatched base sequence was also used to check for any non-specific effect on cdc-2 kinase levels in the transfected cells caused by the oligonucleotide analog. A control containing only lipid was also used as a control. […] Protein levels were examined by Western blot analysis.

[7] = Transfection of CV-1 cells with ODN1 and toxicity (Example 22); assay type: cell-based, African green monkey; settings: monkey, cv-1 cells; 10.0 μg lipid
Experimental: as §3

[8] = fluorescence observation, in words

## CCCCCCCCCCCCCCCCCCN(CCCCCCCCCCCCCCCCCC)C(=O)CNC(=O)[C@@H](N)CCCN.Cl.Cl [Compound 30]
CV-1 cells [1]
  cells transfected CV-1: 85
CV-1 cells [1]; in words
  transfection of CV-1 in the presence of serum: efficiently transfected
Cells [2]; 50 nm filter
  transfection efficiency of 50 nm filtered preparations relative to larger particles: 40-50%
Cells [2]; in words
  transfection efficiency of 200 nm or 100 nm filtered preparations: the most efficient (and equally efficient)
HL60 cells; 20 μg/mL, 0% serum, 5 h
  % HL60 transfected: 77%
HL60 cells; 20 μg/mL, 10% serum, 5 h
  % HL60 transfected: 76%
HL60 cells; 20 μg/mL, 10% serum, 5 h, footnote
  toxicity HL60: significant toxicity noted
HL60 cells; in words
  transfection of HL60: efficiently transfected
SK-OV-3 cells; 40% serum
  % SK-OV-3 transfected: 76%
SK-OV-3 cells; 80% serum
  % SK-OV-3 transfected: 72%
SK-OV-3 cells; in words
  transfection of SK-OV-3 in the presence of serum: efficiently transfected
Cells [3]
  amount of polyanion delivered into cells relative to commercially available lipids: 2- to 100 fold
ECl cells; 2.5 μg/mL lipid, 5 hour transfection
  % ECl transfected: 10%
ECl cells; 5 μg/mL lipid, 5 hour transfection
  % ECl transfected: 25-30%
ECl cells; 5 μg/mL lipid, 6 hour transfection
  % ECl transfected: 30%
ECl cells; 10 μg/mL lipid, 5 hour transfection
  % ECl transfected: 51%
ECl cells; 10 μg/mL lipid, 6 hour transfection
  % ECl transfected: 43%
ECl cells; 15 μg/mL lipid, 5 hour transfection
  % ECl transfected: 70%
ECl cells; 20 μg/mL lipid, 6 hour transfection
  % ECl transfected: 20%
ECl cells; [8]
  level of ODN1 delivered into ECl cells: high levels
ECl cells; in words
  toxicity ECl: little to moderate toxicity
  transfection of ECl: efficiently transfected
A10 cells
  cells transfected A10: 95
  toxicity to A10 cells: little or no toxicity
  transfection of A10 in the presence of serum: efficiently transfected
CV-1 cells [4]
  toxicity to CV-1 cells: little or no toxicity
L7 cells; 2.5 μg/mL lipid
  % L7 transfected: 10%
L7 cells; 5 μg/mL lipid
  % L7 transfected: 30%
L7 cells; 10 μg/mL lipid
  % L7 transfected: 60%
L7 cells; in words
  toxicity L7: little or no toxicity
  transfection of L7: efficiently transfected
HUVEC cells; 5 μg/mL lipid
  % HUVEC transfected: 1%
HUVEC cells; 10 μg/mL lipid
  % HUVEC transfected: 5%
HUVEC cells; in words
  transfection of HUVEC: modest efficiency
NHEK cells; 1 μg/mL lipid, second series
  % NHEK transfected: 25%
NHEK cells; 2.5 μg/mL lipid, second series
  % NHEK transfected: 50%
NHEK cells; 5 μg/mL lipid, first series
  % NHEK transfected: 80-90%
NHEK cells; 5 μg/mL lipid, second series
  % NHEK transfected: 60-70%
NHEK cells; 10 μg/mL lipid, first series
  % NHEK transfected: 70%
NHEK cells; 10 μg/mL lipid, second series
  % NHEK transfected: 60-70%
NHEK cells; 20 μg/mL lipid, first series
  % NHEK transfected: 60%
NHEK cells; [8]
  level of ODN1 delivered into NHEK cells: high levels
NHEK cells; in words
  toxicity NHEK: little to moderate toxicity
  transfection of NHEK: efficiently transfected
CV-1 cells [5]; 2.5 μg/mL, 10% serum
  % CV-1 transfected: 90%
CV-1 cells [5]; 5 μg/mL, 10% serum
  % CV-1 transfected: > 95%
CV-1 cells [5]; 10 μg/mL, 10% serum
  % CV-1 transfected: > 95%
CV-1 cells [5]; 15 μg/mL, 10% serum
  % CV-1 transfected: > 95%
CV-1 cells [5]; 20 μg/mL, 50% serum
  % CV-1 transfected: 95%
CV-1 cells [5]; 20 μg/mL, 80% serum
  % CV-1 transfected: 90%
CV-1 cells [5]; in words
  transfection of CV-1 at reduced levels of lipid: efficiently transfected

## CCCCCCCCCCCCCCCCCCN(CCCCCCCCCCCCCCCCCC)C(=O)CCC(=O)NCCCN1CCN(CCCN)CC1 [Compound 38]
CV-1 cells [1]
  cells transfected CV-1: 70
CV-1 cells [1]; in words
  toxicity to CV-1 cells: little or no toxicity
  transfection of CV-1 in the presence of serum: efficiently transfected
SK-OV-3 cells; 40% serum
  % SK-OV-3 transfected: < 10%
SK-OV-3 cells; 80% serum
  % SK-OV-3 transfected: 0%
A10 cells
  cells transfected A10: 85
  toxicity to A10 cells: little or no toxicity
  transfection of A10 in the presence of serum: efficiently transfected

## CCCCCCCCCCCCNC(=O)CCC(=O)NCCCN1CCN(CCCN)CC1 [Compound 44]
CV-1 cells [1]
  cells transfected CV-1: < 5
A10 cells
  cells transfected A10: < 10

## CCCCCCCCCCCCCCN(CCCCCCCCCCCCCC)C(=O)CNC(=O)C(N)CCCNC(=N)NC(C)=O.Cl.Cl (centres unmarked) [Compound 52]
CV-1 cells [6]; 1 μg lipid
  % cells transfected: 30-40%
CV-1 cells [6]; 2.5 μg lipid
  % cells transfected: 60%
CV-1 cells [6]; 5.0 μg lipid
  % cells transfected: 60%
CV-1 cells [6]; 10.0 μg lipid
  % cells transfected: 60%

## CCCCCCCCCCCCCCN(CCCCCCCCCCCCCC)C(=O)CNC(=O)C(N)CCCNC(=N)NC(=O)OC(C)C.Cl.Cl (centres unmarked) [Compound 53]
cdc-2 kinase
  cdc-2 protein levels: efficiently reduced cdc-2 protein levels
CV-1 cells [6]; 1 μg lipid
  % cells transfected: 30%
CV-1 cells [6]; 2.5 μg lipid
  % cells transfected: 70%
CV-1 cells [6]; 5.0 μg lipid
  % cells transfected: 100%
CV-1 cells [6]; 10.0 μg lipid
  % cells transfected: 60%

## CCCCCCCCCCCCCCN(CCCCCCCCCCCCCC)C(=O)CNC(=O)C(N)CCCNC(=N)NC(=O)C(C)(C)C.Cl.Cl (centres unmarked) [Compound 54]
CV-1 cells [6]; 1 μg lipid
  % cells transfected: 10-20%
CV-1 cells [6]; 2.5 μg lipid
  % cells transfected: 30-40%
CV-1 cells [6]; 5.0 μg lipid
  % cells transfected: 70-80%
CV-1 cells [6]; 10.0 μg lipid
  % cells transfected: 40%

## CCCCCCCCCCCCCCN(CCCCCCCCCCCCCC)C(=O)CNC(=O)[C@@H](N)CCCNC(=N)N [Compound 55]
cdc-2 kinase
  cdc-2 protein levels: efficiently reduced cdc-2 protein levels
[7]
  cytotoxicity at 6 h: > 40%
CV-1 cells [6]; 1 μg lipid
  % cells transfected: 40%
CV-1 cells [6]; 2.5 μg lipid
  % cells transfected: 75%
CV-1 cells [6]; 5.0 μg lipid
  % cells transfected: 100%
CV-1 cells [6]; 10.0 μg lipid
  % cells transfected: 40%
